Results reported in patent US4650753A, “Novel substrates for use in measuring the concentration of kallikrein in urine” (Nitto Boseki Co., Ltd., priority 1984, dated 1987).

Tests used:
[1] = molecular target: T1, Human kallikrein in urine (HUK) (Homo sapiens, UniProt P06870); assay: Substrate specificity test: hydrolysis by human kallikrein in urine, colorimetric; type: biochemical; settings: for Absorbance (O.D.), HUK: 700 nm (CHA substrate, pentacyanoamineferroate), S0 = 0.4 m mole, pH 9.0, 37° C., 5 minutes, 0.1 U/ml enzyme
T1 construct: purchased The Green Cross Corporation Lot No. Y1003SM
T1 sequence (P06870 25-262): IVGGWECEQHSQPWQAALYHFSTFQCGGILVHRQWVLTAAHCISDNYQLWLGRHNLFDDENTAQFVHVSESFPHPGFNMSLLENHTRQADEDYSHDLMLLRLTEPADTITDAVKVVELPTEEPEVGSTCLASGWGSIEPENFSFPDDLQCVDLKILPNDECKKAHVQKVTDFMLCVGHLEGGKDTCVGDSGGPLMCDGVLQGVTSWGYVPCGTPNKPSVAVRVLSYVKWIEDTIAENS
Protocol: (§1) The specificities of newly synthesized substrates were tested by reacting each of them with various enzymes as follows.
(§2) (1) Substrate solution: 2 m moles/liter.H2 O
(§3) (2) Buffer solutions: 50 m moles of tris(hydroxymethyl)aminomethane/hydrochloric acid buffer solution and 150 m moles/liter of NaCl solution were used, and the reaction pH were specified with respect to the enzymes as follows. […]
(§4) (4) Reaction stopper (PNA): 10%-acetic acid
(§5) (5) Chromogenic reagent (CHA): Pentacyanoamineferroate
(§6) (6) Method of determination:
(§7) 0.3 Milliliter of the buffer solution and 0.1 ml of the enzyme reagent were taken in a hard glass test tube of which surface being treated with silicone, or a plastic test tube and preheated in a thermostat at 37° C. for 5 minutes so as to conduct the enzymatic reaction. Precisely 5 minutes after the reaction was started, 2.0 ml of reaction stopper solution or reaction terminating chromogenic reagent was added to terminate the enzymatic reaction. After the enzymatic reaction was completed, the reaction mixture was allowed to stand at 37° C. for 10 minutes, and then the absorbance at 405 nm or 700 nm was measured.

Urokinase (UK) = molecular target: T2, Urokinase (UK) (Homo sapiens, UniProt P00749); assay: Substrate specificity test: hydrolysis by urokinase, colorimetric; type: biochemical; settings: for Absorbance (O.D.), UK: 700 nm (CHA substrate, pentacyanoamineferroate), S0 = 0.4 m mole, pH 8.2, 37° C., 5 minutes, 1000 U/ml enzyme
T2 construct: purchased Mochida Pharmaceutical Co., Ltd. Lot No. 2C239
Protocol: as §1, §2, §3, §4, §5, §6, §7

Plasmin (PL) = molecular target: T3, Plasmin (PL) (Homo sapiens, UniProt P00747); assay: Substrate specificity test: hydrolysis by plasmin, colorimetric; type: biochemical; settings: for Absorbance (O.D.), PL: 700 nm (CHA substrate, pentacyanoamineferroate), S0 = 0.4 m mole, pH 7.8, 37° C., 5 minutes, 0.25 CU/ml enzyme
T3 construct: purchased The Green Cross Corporation Lot No. PL-35
T3 sequence (P00747 581-810 limits assumed): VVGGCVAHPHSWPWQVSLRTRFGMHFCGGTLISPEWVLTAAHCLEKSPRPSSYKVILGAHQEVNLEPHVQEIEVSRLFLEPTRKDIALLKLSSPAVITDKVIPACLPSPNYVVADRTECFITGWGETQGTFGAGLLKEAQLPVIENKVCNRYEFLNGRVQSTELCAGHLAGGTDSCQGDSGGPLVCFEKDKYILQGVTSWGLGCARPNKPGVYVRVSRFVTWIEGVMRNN
T3 sequence (P00747 97-580 partner limits assumed): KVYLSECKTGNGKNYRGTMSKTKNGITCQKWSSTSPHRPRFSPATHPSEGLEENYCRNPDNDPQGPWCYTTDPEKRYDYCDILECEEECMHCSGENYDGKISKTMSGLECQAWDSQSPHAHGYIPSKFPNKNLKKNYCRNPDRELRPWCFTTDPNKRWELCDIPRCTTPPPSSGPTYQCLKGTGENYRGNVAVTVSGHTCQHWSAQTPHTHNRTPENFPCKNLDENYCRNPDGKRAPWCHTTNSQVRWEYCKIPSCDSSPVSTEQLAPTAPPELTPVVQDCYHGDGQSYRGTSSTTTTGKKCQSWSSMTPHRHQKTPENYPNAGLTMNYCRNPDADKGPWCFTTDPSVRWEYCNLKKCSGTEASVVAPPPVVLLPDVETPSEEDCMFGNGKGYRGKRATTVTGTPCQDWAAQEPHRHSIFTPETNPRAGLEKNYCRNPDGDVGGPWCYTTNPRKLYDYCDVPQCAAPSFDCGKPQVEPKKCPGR
Protocol: as §1, §2, §3, §4, §5, §6, §7

Thrombin (TH) = molecular target: T4, Thrombin (TH) (Bos taurus, UniProt P00735); assay: Substrate specificity test: hydrolysis by thrombin, colorimetric; type: biochemical, Bovine; settings: for Absorbance (O.D.), TH: 700 nm (CHA substrate, pentacyanoamineferroate), S0 = 0.4 m mole, pH 8.5, 37° C., 5 minutes, 4.0 NIH/ml enzyme
T4 construct: purchased Mochida Pharmaceutical Co., Ltd. Lot No. 65146
Protocol: as §1, §2, §3, §4, §5, §6, §7

[2] = PS-2103N given as 100, S0 = 0.4 m mol

| Absorbance (O.D.), HUK [1] [OD] | Relative reactivity to enzymes, HUK [1, 2] | Absorbance (O.D.), UK (Urokinase (UK)) [OD] | Relative reactivity to enzymes, UK (Urokinase (UK); [2]) | reactivity to urokinase (Urokinase (UK); relative to PS-2103N = 100) [%] | Absorbance (O.D.), PL (Plasmin (PL)) [OD] | Relative reactivity to enzymes, PL (Plasmin (PL); [2]) | reactivity to plasmin (Plasmin (PL); relative to PS-2103N = 100) [%] | Absorbance (O.D.), TH (Thrombin (TH)) [OD] | Relative reactivity to enzymes, TH (Thrombin (TH); [2]) | reactivity to thrombin (Thrombin (TH); relative to PS-2103N = 100) [%] | Substance |
| --- | --- | --- | --- | --- | --- | --- | --- | --- | --- | --- | --- |
| 0.599 | 242 | 0.0 | 0 | 0 | 0.011 | 4 | 4 | 0.007 | 7 | 7 | H-D-Ala-Phe-Arg-CHA [PS-2103] |
| 0.128 |  | 0.0 |  |  | 0.016 |  |  | 0.005 |  |  | H-D-PGlu-Phe-Arg-CHA [PS-2102] |
| 0.244 |  | 0.003 |  |  | 0.014 |  |  | 0.016 |  |  | H-D-Pro-Phe-Arg-CHA [PS-2100] |
